Type in all cases: cell-based, human
One experiment has as its system glioma cell line A172. As to the kind of experiment: Example 2: BOHB and Acac added alone or in combination to Medium A-C (CellTiter-Glo). The conditions noted are these: for growth, repetition experiments 2-6: BOHB or Acac added separately, FIG. 9, inconsistent results; for number of cells compared to 8 mM LiCl control: 8 mM Acac. The method, then: (§1) Stock solutions of DL-β-Hydroxybutyric acid sodium salt (H6501, Sigma Aldrich) and Lithium Acetoacetate (A8509, Sigma Aldrich) were prepared in water, sterile filtered, aliquoted and stored at −20° C. Lithium Chloride (L7026, Sigma Aldrich) was used as a control for the addition of Lithium in the Li-Acac.
(§2) CellTiter-Glo Luminescent cell viability assay (Promega) was used as a readout of cell numbers according to the manufacturers' instructions. In experiments shown in FIGS. 7-8, double plates were seeded and treated. One set of plates was used for collection of medium for lactate measurement (see below) and the CellTiterGlo-assay. The other set of plates was frozen at −80° C. at the end of the experiment. The frozen plates were intended for the CyQuant cell proliferation assay (Thermo Fisher) that measures the amount of DNA per well. Analysis of the amounts of cells by both CellTiterGlo and CyQuant assays would ensure that effects of the culture conditions on viability or growth rate would not be concealed by simultaneous changes in ATP-levels per cell.
(§3) Next, it was decided to also include Acac in the study and analyze the viability of cells cultured in the presence of BOHB and Acac alone or in combination in Medium A-C. The experiment was performed at 21% and 5% O2. The experiments were made with glioma cell lines A172 and U118MG.
(§4) Being a chiral molecule, BOHB exists as two enantiomers, D- and L-BOHB. D-BOHB is normally produced and metabolized in humans. The BOHB-salt used in this study contains a mixture of 50:50 of D- and L-BOHB. In order to ensure a high presence of the active D-form, the total concentration of BOHB added was increased to 16 mM, giving a level of 8 mM D-BOHB. To keep the total concentration of active ketones constant, 8 mM Acac was used, and for the combination of both ketones, the levels were adjusted to 4 mM Acac and 8 mM BOHB (containing 4 mM D-BOHB).
(§5) The Acac available for in vitro use is in the form of a lithium salt. Since lithium itself can affect the viability of cancer cells [Cohen-Harazi et al., Anticancer Res 2020; 40:3831-3837], 8 mM LiCl was used as a control for the 8 mM Acac data point and 4 mM LiCl was used as a control for the 4 mM Acac/8 mM BOHB data.
(§6) At the end of the experiment, the culture media from each well was collected and frozen to enable later determination of lactate levels as a measurement of the metabolic state. In addition, double experiments were performed, where one set of plates were frozen for later quantification of cell numbers using the CyQuant proliferation assay, and the amounts of cells in the other set were analyzed by CellTiterGlo viability assay.
On the technique in general: Cellular ATP, detected with luciferase, serves as a proxy for viable cell number.

For a further experiment, the system named is glioma cell line U118MG. The experiment is described as above. The following applies: for number of cells compared to 8 mM LiCl control: 8 mM Acac. The method, then: as §1, §2, §3, §4, §5, §6
Experiment [1] concerns renal carcinoma cell line RCC4. The experiment in a line: Example 2: BOHB and Acac added alone or in combination to Medium B-C (CellTiter-Glo). The following applies: nutrient restricted Medium C. The method, then: as §1, §2
Being a chiral molecule, BOHB exists as two enantiomers, D- and L-BOHB. D-BOHB is normally produced and metabolized in humans. The BOHB-salt used in this study contains a mixture of 50:50 of D- and L-BOHB. […]

Experiment [2] has as its system RCC4 (renal cell carcinoma). The experiment in a line: Study 2: CellTiter-Glo viability, DMEM without sodium pyruvate. The following applies: BOHB 0/4/12 mM, 3 d. Here is the method: (§7) Cell lines established from human colon carcinoma (HCT15, NCI-H508 and COLO205), renal cell carcinoma (769-P, 786-O and RCC4) and glioblastoma (LN-18, A-172 and U-118 MG) were selected for the analysis. All cell lines were obtained from American Type Culture Collection (ATCC, LGC standards, UK) except for RCC4 and HCT15 that was purchased from Sigma-Aldrich (Merck, Germany). In addition, primary human renal cell carcinoma (RCC) cells isolated from patient nephrectomies were included in the study. […]
(§8) Optimal seeding density was determined for each cell line in 96 well plates according to the “Protocol for optimizing cell seeding densities to ensure Log-phase growth”. […] Cover the plate. • Incubate the plate overnight at 37° C., 5% CO2. • Add 50 μL of fresh media to the plate wells to achieve a final volume of 200 µL and incubate for 72 h at 37° C., 5% CO2. • Measure viability using Cell Titer Glo assay according to manufacturer's protocol. • Plot log cell number against luminescence intensity to identify the concentration of cells at which log growth is achieved.
(§9) CellTiter-Glo Luminescent cell viability assay (Promega) was used as a readout of viability.
(§10) For each cell line, optimal number of cells as determined above were seeded into 96-well plates on day 0. […]

For a further experiment, the system named is A172 (glioblastoma). The experiment is described as above. The conditions noted are these: BOHB 0/4/12 mM, 3 d. Here is the method:
as §7, §8, §9, §10

The mark [3] stands for this setting: Medium A, 16 mM BOHB alone, both normoxia and hypoxia, 3 days.
The mark [4] stands for this setting: Medium C, 16 mM BOHB, both 21 and 5% O2.
Where [5] appears, read: Medium A, both normoxia and hypoxia.

For the molecule `CC(O)CC(=O)[O-].[Na+]` (racemic) [BOHB, DL-β-Hydroxybutyric acid sodium salt], the growth inhibitory effect entry with glioma cell line A172 (setting [3]) and in the experiment with glioma cell line U118MG (setting [3]) was “no growth inhibitory effect” throughout. Besides, the “number of cells, % of the amount in Medium B without BOHB” value with glioma cell line A172 (Medium B, hypoxic) is “approximately 70%”. The “number of cells, % compared to C-medium without BOHB” value in the experiment on glioma cell line A172 (setting [4]) and with glioma cell line U118MG (setting [4]) was “around 30%” in each case. In the experiment with glioma cell line A172 (Medium C), the “growth, repetition experiments 2-6” value is recorded as “trend of reduced growth”. Further, the “increased sensitivity to high levels of BOHB or a combination of BOHB and Acac” value in experiment [1] was “not found”. The “proliferation of cells with increase in the concentration of BOHB” value (in experiment [2]; in the experiment on A172 (glioblastoma)) was “suppresses the proliferation of cells” in each case.

As for `CC(=O)CC(=O)[O-].[Li+]` [Acac, Lithium Acetoacetate], the “number of cells compared to 8 mM LiCl control” value with glioma cell line A172 (setting [5]) is given as “did not reduce the number of cells further”; in the experiment with glioma cell line A172 (Medium B, only at 21% O2), “reduced the number of cells significantly”; with glioma cell line U118MG (setting [5]), “did not reduce the number of cells further”; in the experiment on glioma cell line U118MG (Medium B, only at 21% O2), “reduced the number of cells significantly”. Further, the “amounts of cells compared to 8 mM LiCl control” value in the experiment on glioma cell line A172 (Medium C, 8 mM Acac alone) is recorded as “did not significantly reduce the amounts of cells”; with glioma cell line U118MG (Medium C, 8 mM Acac alone), “did not significantly reduce the amounts of cells”. Besides, the “growth, repetition experiments 2-6” value with glioma cell line A172 (Medium C) was “trend of reduced growth”.

The record behind these values is patent US20250009691A1, “DIALYSIS FLUID COMPRISING KETONE BODIES FOR THE TREATMENT OF CANCER” (GAMBRO LUNDIA AB, priority 2021, published 2025).
